Active and inactive are the calls of the source. The rule behind the calls is not given here.
Key:
Colletotrichum acutatum [1] = experiment: Fungicidal activity against Colletotrichum acutatum infested Citrus sinensis assessed as increase in fruit set at 0.5 g/l applied through airblast sprayer during white bud and hollow ball flower stages measured after 70 days relative to control; format: functional, organism-based
Colletotrichum acutatum [2] = experiment: Fungicidal activity against Colletotrichum acutatum infested Citrus sinensis assessed as increase in fruit set at 0.5 g/l applied through airblast sprayer during white bud flower stage measured after 70 days; format: functional, organism-based
Colletotrichum acutatum [3] = experiment: Fungicidal activity against Colletotrichum acutatum infested Citrus sinensis assessed as increase in fruit set at 0.5 g/l applied through airblast sprayer during green bud flower stage measured after 70 days; format: functional, organism-based
Colletotrichum acutatum [4] = experiment: Fungicidal activity against Colletotrichum acutatum infested Citrus sinensis assessed as reduction in number of symptomatic flowers at 0.5 g/l applied through airblast sprayer during green bud until open flower stages measured after 7 days; format: functional, organism-based
Colletotrichum acutatum [5] = experiment: Fungicidal activity against Colletotrichum acutatum infested Citrus sinensis assessed as reduction in number of symptomatic flowers at 0.5 g/l applied through airblast sprayer during green bud, white bud and hollow ball flower stages measured after 7 days; format: functional, organism-based
Colletotrichum acutatum [6] = experiment: Fungicidal activity against Colletotrichum acutatum infested Citrus sinensis assessed as reduction in number of symptomatic flowers at 0.5 g/l applied through airblast sprayer during green bud and white bud flower stages measured after 7 days; format: functional, organism-based
Colletotrichum acutatum [7] = experiment: Fungicidal activity against Colletotrichum acutatum infested Citrus sinensis assessed as reduction in number of symptomatic flowers at 0.5 g/l applied through airblast sprayer during green bud flower stage measured after 7 days; format: functional, organism-based
Colletotrichum acutatum [8] = experiment: Fungicidal activity against Colletotrichum acutatum infested Citrus sinensis assessed as increase in fruit production per tree at 0.5 g/l applied through airblast sprayer during green bud to white ball flower stages measured after 70 days in presence of KNO3; format: functional, organism-based
Colletotrichum acutatum [9] = experiment: Fungicidal activity against Colletotrichum acutatum infested Citrus sinensis assessed as increase in fruit set percentage at 0.5 g/l applied through airblast sprayer during green bud to white ball flower stages measured after 70 days in presence of KNO3; format: functional, organism-based
Colletotrichum acutatum [10] = experiment: Fungicidal activity against Colletotrichum acutatum infested Citrus sinensis assessed as reduction in persistant calyces at 0.5 g/l applied through airblast sprayer during green bud to white ball flower stages measured after 7 days; format: functional, organism-based
Colletotrichum acutatum [11] = experiment: Fungicidal activity against Colletotrichum acutatum infested Citrus sinensis assessed as increase in fruit set percentage at 0.5 g/l applied through airblast sprayer during green bud to white ball flower stages measured after 70 days; format: functional, organism-based
Colletotrichum acutatum [12] = experiment: Fungicidal activity against Colletotrichum acutatum infested Citrus sinensis assessed as increase in fruit production per tree at 0.5 g/l applied through airblast sprayer during green bud to white ball flower stages measured after 70 days; format: functional, organism-based
Colletotrichum acutatum [13] = experiment: Fungicidal activity against Colletotrichum acutatum infested Citrus sinensis assessed as total fruit weight per plant at 0.5 g/l applied through airblast sprayer during white bud and hollow ball flower stages measured after 70 days (Rvb =49.88 kg); format: functional
Colletotrichum acutatum [14] = experiment: Fungicidal activity against Colletotrichum acutatum infested Citrus sinensis assessed as total fruit weight per plant at 0.5 g/l applied through airblast sprayer during green bud and hollow ball flower stages measured after 70 days (Rvb =49.88 kg); format: functional
Colletotrichum acutatum [15] = experiment: Fungicidal activity against Colletotrichum acutatum infested Citrus sinensis assessed as total fruit weight per plant at 0.5 g/l applied through airblast sprayer during open flower stage measured after 70 days (Rvb =49.88 kg); format: functional
Colletotrichum acutatum [16] = experiment: Fungicidal activity against Colletotrichum acutatum infested Citrus sinensis assessed as total fruit weight per plant at 0.5 g/l applied through airblast sprayer during hollow ball flower stage measured after 70 days (Rvb =49.88 kg); format: functional
Colletotrichum acutatum [17] = experiment: Fungicidal activity against Colletotrichum acutatum infested Citrus sinensis assessed as total fruit weight per plant at 0.5 g/l applied through airblast sprayer during green bud until open flower stages measured after 70 days (Rvb =65.90 kg); format: functional
Colletotrichum acutatum [18] = experiment: Fungicidal activity against Colletotrichum acutatum infested Citrus sinensis assessed as total fruit weight per plant at 0.5 g/l applied through airblast sprayer during green bud, white bud and hollow ball flower stages measured after 70 days (Rvb =65.90 kg); format: functional
Colletotrichum acutatum [19] = experiment: Fungicidal activity against Colletotrichum acutatum infested Citrus sinensis assessed as total fruit weight per plant at 0.5 g/l applied through airblast sprayer during green bud and white bud flower stages measured after 70 days (Rvb =65.90 kg); format: functional
Colletotrichum acutatum [20] = experiment: Fungicidal activity against Colletotrichum acutatum infested Citrus sinensis assessed as total fruit weight per plant at 0.5 g/l applied through airblast sprayer during green bud flower stage measured after 70 days (Rvb =65.90 kg); format: functional
Colletotrichum acutatum [21] = experiment: Fungicidal activity against Colletotrichum acutatum infested Citrus sinensis assessed as increase in fruit set at 0.5 g/l applied through airblast sprayer during open flower stage measured after 70 days; format: functional, organism-based
Colletotrichum acutatum [22] = experiment: Fungicidal activity against Colletotrichum acutatum infested Citrus sinensis assessed as reduction in symptomatic flowers at 0.5 g/l applied through airblast sprayer during open flower stage measured after 7 days; format: functional, organism-based
Colletotrichum acutatum [23] = experiment: Fungicidal activity against Colletotrichum acutatum infested Citrus sinensis assessed as reduction in symptomatic flowers at 0.5 g/l applied through airblast sprayer during hollow ball flower stage measured after 7 days; format: functional, organism-based
Colletotrichum acutatum [24] = experiment: Fungicidal activity against Colletotrichum acutatum infested Citrus sinensis assessed as reduction in symptomatic flowers at 0.5 g/l applied through airblast sprayer during white bud and hollow ball flower stages measured after 7 days; format: functional, organism-based
Colletotrichum acutatum [25] = experiment: Fungicidal activity against Colletotrichum acutatum infested Citrus sinensis assessed as reduction in symptomatic flowers at 0.5 g/l applied through airblast sprayer during green bud and hollow ball flower stages measured after 7 days; format: functional, organism-based

With `COC(=O)Nc1nc2ccccc2[nH]1` [CARBENDAZIM] the Activity (Colletotrichum acutatum [1]) was “Active”, the Activity (Colletotrichum acutatum [2]) was “Active” and the Activity (Colletotrichum acutatum [3]) was “Active”. For the same compound, the Activity (Colletotrichum acutatum [4]) was “Active”, the Activity (Colletotrichum acutatum [5]) was “Active” and the Activity (Colletotrichum acutatum [6]) was “Active”. The Activity (Colletotrichum acutatum [7]) was “Active”, the Activity (Colletotrichum acutatum [8]) was “Active” and the Activity (Colletotrichum acutatum [9]) was “Active”. For the same compound, the Activity (Colletotrichum acutatum [10]) was “Active”, the Activity (Colletotrichum acutatum [11]) was “Active” and the Activity (Colletotrichum acutatum [12]) was “Active”. For the same compound, the Activity (Colletotrichum acutatum [13]) was 63.5 kg, the Activity (Colletotrichum acutatum [14]) was 73.8 kg and the Activity (Colletotrichum acutatum [15]) was 59 kg. The Activity (Colletotrichum acutatum [16]) was 57 kg, the Activity (Colletotrichum acutatum [17]) was 114.9 kg and the Activity (Colletotrichum acutatum [18]) was 102.4 kg. For the same compound, the Activity (Colletotrichum acutatum [19]) was 67.9 kg, the Activity (Colletotrichum acutatum [20]) was 53.7 kg and the Activity (Colletotrichum acutatum [21]) was “inactive”. The Activity (Colletotrichum acutatum [22]) was “inactive”, the Activity (Colletotrichum acutatum [23]) was “Active” and the Activity (Colletotrichum acutatum [24]) was “Active”. The Activity (Colletotrichum acutatum [25]) was “Active”.

— ChEMBL document CHEMBL3044960, “Evaluation of fungicide applications to sweet orange at different flowering stages for control of postbloom fruit drop caused by Colletotrichum acutatum” (2008)
